# Reference: patent US6562814B2, “3-thioxo-[1,2,4]-oxadiazinan-5-one derivatives” (Wyeth, priority 2000, dated 2003)
# Columns and labels:
# serum HDL cholesterol = test: HDL cholesterol determination in cholesterol/cholic acid-fed rats; assay type: in vivo, Male Sprague-Dawley rats; details: Rattus norvegicus, feed or water, 192 h, 8 days, rats fed chow with 0.25% cholic acid and 1.0% cholesterol, FPLC, read-out: HDL Cholesterol Level Increase (%); for change in vivo at 100 mg/kg/day: dose 100 mg/kg/day in diet
# Description: The ability of the compounds of this invention to increase blood serum HDL levels was established by the following standard experimental procedure for determination of HDL cholesterol:
# Male Sprague-Dawley rats weighing 200-225 g were housed two per cage and fed Purina Rodent Chow Special Mix 5001-S supplemented with 0.25% cholic acid and 1.0% cholesterol and water ad libitum for 8 days. Each test substance is administered to a group of six rats fed the same diet with the test diet mixed in as 0.005-0.1% of the total diet. Body weight and food consumption were recorded prior to diet administration and at termination. Typical doses of the test substances were 5-100 mg/kg/day.
# At termination, blood was collected from anesthetized rats and the serum was separated by centrifugation. Total serum cholesterol was assayed using the Sigma Diagnostics enzymatic kit for the determination of cholesterol, Procedure No. 352, modified for use with ninety-six well microtiter plates. After reconstitution with water the reagent contains 300 U/I cholesterol oxidase, 100 U/I cholesterol esterase, 1000 U/I horse radish peroxidase, 0.3 mmoles/l 4-aminoantipyrine and 30.0 mmoles/l p-hydroxybenzenesulfonate in a pH 6.5 buffer. In the reaction cholesterol was oxidized to produce hydrogen peroxide which was used to form a quinoneimine dye. The concentration of dye formed was measured spectrophotometrically by absorbence at 490 nm after incubation at 25° C. for 30 minutes. The concentration of cholesterol was determined for each serum sample relative to a commercial standard from Sigma.
# HDL cholesterol concentrations in serum are determined by separation of lipoprotein classes by fast protein liquid chromatography (FPLC) by a modification of the method of Kieft et al., J. Lipid Res., 32 (1991) 859-866. 25 ul of serum was injected onto Superose 12 and Superose 6 (Pharmacia), in series, with a column buffer of 0.05 M Tris (2-amino-2-hydroxymethyl-1,3-propanediol) and 0.15 M sodium chloride at a flow rate of 0.5 ml/min. The eluted sample was mixed on line with Boehringer-Mannheim cholesterol reagent pumped at 0.2 ml/min. The combined eluents are mixed and incubated on line through a knitted coil (Applied Biosciences) maintained at a temperature of 45C. The eluent was monitored by measuring absorbence at 490 nm and gives a continuous absorbence signal proportional to the cholesterol concentration. The relative concentration of each lipoprotein class was calculated as the percent of total absorbence. HDL cholesterol concentration, in serum, was calculated as the percent of total cholesterol as determined by FPLC multiplied by the total serum cholesterol concentration.
# Test compounds were administered at the specified dose. Each test substance was administered to a group of six rats. The duration of treatment was eight days.
Structure (SMILES),change in vivo at 100 mg/kg/day (serum HDL cholesterol) [%],melting point [°C],change in vivo at 85 mg/kg/day (serum HDL cholesterol; dose 85 mg/kg/day in diet) [%]
"CN1OCC(=O)N(c2ccc(C(C)(C)C)cc2)C1=S [Example 9, 4-(4-tert-Butylphenyl)-2-methyl-3-thioxo-[1,2,4]oxadiazinan-5-one]",170,168 to 170,
"Cc1cccc(Cl)c1N1C(=O)CON(C)C1=S [Example 7, 4-(2-Chloro-6-methylphenyl)-2-methyl-3-thioxo-[1,2,4]oxadiazinan-5-one]",100,176 to 178,
"CN1OCC(=O)N(c2ccc(Oc3ccccc3)cc2)C1=S [Example 10, 4-(4-Phenoxyphenyl)-2-methyl-3-thioxo-[1,2,4]oxadiazinan-5-one]",102,159 to 160,
"COc1ccc(Cl)cc1N1C(=O)CON(C)C1=S [Example 11, 4-(5-Chloro-2-methoxyphenyl)-2-methyl-3-thioxo-[1,2,4]oxadiazinan-5-one]",78,189 to 191,
"Cc1cc(Cl)ccc1N1C(=O)CON(C)C1=S [Example 1, 4-(4-Chloro-2-methylphenyl)-2-methyl-3-thioxo-[1,2,4]oxadiazinan-5-one]",221,141 to 143,
"CC(C)c1ccccc1N1C(=O)CON(C)C1=S [Example 8, 4-(2-Isopropylphenyl)-2-methyl-3-thioxo-[1,2,4]oxadiazinan-5-one]",95,98 to 101,
"Cc1ccc(C)c(N2C(=O)CON(C)C2=S)c1 [Example 6, 4-(2,5-Dimethylphenyl)-2-methyl-3-thioxo-[1,2,4]oxadiazinan-5-one]",72,104 to 106,
"Cc1ccc(Cl)cc1N1C(=O)CON(C)C1=S [Example 3, 4-(5-Chloro-2-methylphenyl)-2-methyl-3-thioxo-[1,2,4]oxadiazinan-5-one]",236,100 to 102,
"CN1OCC(=O)N(C(c2ccccc2)c2ccccc2)C1=S [Example 2, 4-Benzhydryl-2-methyl-3-thioxo-[1,2,4]oxadiazinan-5-one]",60,152 to 154,
"CN1OCC(=O)N(c2ccc3c(c2)CCC3)C1=S [Example 5, 4-Indan-5-yl-2-methyl-3-thioxo-[1,2,4]oxadiazinan-5-one]",192,135 to 137,
"CCN1OCC(=O)N(c2cc(Cl)ccc2C)C1=S [Example 4, 4-(5-Chloro-2-methylphenyl)-2-ethyl-3-thioxo-[1,2,4]oxadiazinan-5-one]",,119 to 121,136
